We go through seven compounds from patent US9340590B2 (priority 2011, dated 2016).

Like-named read-outs stand apart in the source and are kept apart here. Positions of bridges follow the written chain, without caps; N, C: chain ends. Residues, ends and D or L forms follow the SMILES beside them.

Common to all, as to assay: cell-based
Assay [1] deals with T1, hNav1.7 (Homo sapiens, UniProt Q15858). The format is cell-based. As to conditions: IonWorks Quattro; clamped to −110 mV, depolarized to −10 mV, 5 min after compound; n=2; read-out: IWQ Use Nav1.7. (In general: In patch-clamp work, channel activity is measured electrically.)
For another assay, the target named is hNav1.5 (Homo sapiens, UniProt Q14524). As to conditions: IonWorks Quattro; clamped to −110 mV, depolarized to −10 mV, 5 min after compound; n=2; read-out: IWQ Use Nav1.5.
Assay [2] concerns the target T2, hNav1.3 (Homo sapiens, UniProt Q9NY46). Conditions: IonWorks Quattro; clamped to −110 mV, depolarized to −10 mV, 5 min after compound; n=2; read-out: IWQ Use Nav1.3.
The target of assay [3] is T1, hNav1.7. As to conditions: Nav1.7 Use IC50.
Assay [4] deals with T2, hNav1.3. It is filed as cell-based. Conditions: for IC50: Nav1.3 Use IC50.

T1 sequence (Q15858 whole entry, looked up): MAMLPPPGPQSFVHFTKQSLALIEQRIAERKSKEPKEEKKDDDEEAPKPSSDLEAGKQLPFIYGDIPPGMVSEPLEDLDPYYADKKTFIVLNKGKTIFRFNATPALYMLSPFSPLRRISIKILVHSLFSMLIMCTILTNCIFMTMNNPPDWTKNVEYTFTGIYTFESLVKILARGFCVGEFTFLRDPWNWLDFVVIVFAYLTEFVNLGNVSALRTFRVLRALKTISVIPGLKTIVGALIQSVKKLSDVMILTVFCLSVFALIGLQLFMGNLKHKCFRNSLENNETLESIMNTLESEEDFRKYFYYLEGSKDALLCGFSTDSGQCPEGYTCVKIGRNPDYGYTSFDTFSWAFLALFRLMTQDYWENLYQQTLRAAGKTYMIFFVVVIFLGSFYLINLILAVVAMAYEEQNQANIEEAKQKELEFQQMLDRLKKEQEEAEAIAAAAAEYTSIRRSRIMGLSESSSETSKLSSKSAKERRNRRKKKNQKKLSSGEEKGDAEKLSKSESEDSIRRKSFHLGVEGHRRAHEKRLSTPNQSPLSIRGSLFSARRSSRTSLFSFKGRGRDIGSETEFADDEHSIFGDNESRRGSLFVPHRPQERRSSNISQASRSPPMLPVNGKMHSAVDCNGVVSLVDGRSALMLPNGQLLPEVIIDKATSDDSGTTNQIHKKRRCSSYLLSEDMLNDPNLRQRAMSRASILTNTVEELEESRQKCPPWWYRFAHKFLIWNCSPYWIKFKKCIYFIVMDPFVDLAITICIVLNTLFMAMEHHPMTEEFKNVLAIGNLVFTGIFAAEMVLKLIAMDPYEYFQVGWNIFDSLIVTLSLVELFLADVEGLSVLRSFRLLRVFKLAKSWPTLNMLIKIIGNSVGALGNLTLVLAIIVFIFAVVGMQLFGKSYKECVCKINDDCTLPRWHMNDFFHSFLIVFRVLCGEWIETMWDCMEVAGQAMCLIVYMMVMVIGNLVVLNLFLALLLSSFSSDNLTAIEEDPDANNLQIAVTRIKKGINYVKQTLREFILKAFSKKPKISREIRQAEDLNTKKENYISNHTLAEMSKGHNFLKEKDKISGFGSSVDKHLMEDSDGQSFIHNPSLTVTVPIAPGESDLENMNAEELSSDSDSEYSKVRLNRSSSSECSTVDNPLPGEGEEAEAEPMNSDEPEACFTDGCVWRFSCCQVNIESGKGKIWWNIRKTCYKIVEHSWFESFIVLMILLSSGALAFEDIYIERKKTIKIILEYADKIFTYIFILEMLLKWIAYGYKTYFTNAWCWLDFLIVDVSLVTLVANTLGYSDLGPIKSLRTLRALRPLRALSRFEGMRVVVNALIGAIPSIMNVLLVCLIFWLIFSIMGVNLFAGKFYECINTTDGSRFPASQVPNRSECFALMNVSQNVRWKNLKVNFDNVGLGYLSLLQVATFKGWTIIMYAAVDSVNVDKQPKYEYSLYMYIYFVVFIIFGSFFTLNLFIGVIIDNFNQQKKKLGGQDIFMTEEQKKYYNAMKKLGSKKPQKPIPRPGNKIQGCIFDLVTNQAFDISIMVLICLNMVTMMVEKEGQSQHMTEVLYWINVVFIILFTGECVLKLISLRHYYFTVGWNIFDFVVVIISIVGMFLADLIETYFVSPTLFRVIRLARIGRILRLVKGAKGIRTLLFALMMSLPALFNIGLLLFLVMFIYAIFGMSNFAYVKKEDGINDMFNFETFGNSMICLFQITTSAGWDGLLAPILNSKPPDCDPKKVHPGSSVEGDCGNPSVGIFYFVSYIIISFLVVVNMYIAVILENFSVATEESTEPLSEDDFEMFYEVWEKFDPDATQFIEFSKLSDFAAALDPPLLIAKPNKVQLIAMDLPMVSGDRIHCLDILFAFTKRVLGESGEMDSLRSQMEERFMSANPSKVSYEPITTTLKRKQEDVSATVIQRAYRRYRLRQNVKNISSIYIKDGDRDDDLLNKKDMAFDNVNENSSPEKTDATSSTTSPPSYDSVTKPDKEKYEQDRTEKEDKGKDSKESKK
T2 sequence (Q9NY46 whole entry, looked up): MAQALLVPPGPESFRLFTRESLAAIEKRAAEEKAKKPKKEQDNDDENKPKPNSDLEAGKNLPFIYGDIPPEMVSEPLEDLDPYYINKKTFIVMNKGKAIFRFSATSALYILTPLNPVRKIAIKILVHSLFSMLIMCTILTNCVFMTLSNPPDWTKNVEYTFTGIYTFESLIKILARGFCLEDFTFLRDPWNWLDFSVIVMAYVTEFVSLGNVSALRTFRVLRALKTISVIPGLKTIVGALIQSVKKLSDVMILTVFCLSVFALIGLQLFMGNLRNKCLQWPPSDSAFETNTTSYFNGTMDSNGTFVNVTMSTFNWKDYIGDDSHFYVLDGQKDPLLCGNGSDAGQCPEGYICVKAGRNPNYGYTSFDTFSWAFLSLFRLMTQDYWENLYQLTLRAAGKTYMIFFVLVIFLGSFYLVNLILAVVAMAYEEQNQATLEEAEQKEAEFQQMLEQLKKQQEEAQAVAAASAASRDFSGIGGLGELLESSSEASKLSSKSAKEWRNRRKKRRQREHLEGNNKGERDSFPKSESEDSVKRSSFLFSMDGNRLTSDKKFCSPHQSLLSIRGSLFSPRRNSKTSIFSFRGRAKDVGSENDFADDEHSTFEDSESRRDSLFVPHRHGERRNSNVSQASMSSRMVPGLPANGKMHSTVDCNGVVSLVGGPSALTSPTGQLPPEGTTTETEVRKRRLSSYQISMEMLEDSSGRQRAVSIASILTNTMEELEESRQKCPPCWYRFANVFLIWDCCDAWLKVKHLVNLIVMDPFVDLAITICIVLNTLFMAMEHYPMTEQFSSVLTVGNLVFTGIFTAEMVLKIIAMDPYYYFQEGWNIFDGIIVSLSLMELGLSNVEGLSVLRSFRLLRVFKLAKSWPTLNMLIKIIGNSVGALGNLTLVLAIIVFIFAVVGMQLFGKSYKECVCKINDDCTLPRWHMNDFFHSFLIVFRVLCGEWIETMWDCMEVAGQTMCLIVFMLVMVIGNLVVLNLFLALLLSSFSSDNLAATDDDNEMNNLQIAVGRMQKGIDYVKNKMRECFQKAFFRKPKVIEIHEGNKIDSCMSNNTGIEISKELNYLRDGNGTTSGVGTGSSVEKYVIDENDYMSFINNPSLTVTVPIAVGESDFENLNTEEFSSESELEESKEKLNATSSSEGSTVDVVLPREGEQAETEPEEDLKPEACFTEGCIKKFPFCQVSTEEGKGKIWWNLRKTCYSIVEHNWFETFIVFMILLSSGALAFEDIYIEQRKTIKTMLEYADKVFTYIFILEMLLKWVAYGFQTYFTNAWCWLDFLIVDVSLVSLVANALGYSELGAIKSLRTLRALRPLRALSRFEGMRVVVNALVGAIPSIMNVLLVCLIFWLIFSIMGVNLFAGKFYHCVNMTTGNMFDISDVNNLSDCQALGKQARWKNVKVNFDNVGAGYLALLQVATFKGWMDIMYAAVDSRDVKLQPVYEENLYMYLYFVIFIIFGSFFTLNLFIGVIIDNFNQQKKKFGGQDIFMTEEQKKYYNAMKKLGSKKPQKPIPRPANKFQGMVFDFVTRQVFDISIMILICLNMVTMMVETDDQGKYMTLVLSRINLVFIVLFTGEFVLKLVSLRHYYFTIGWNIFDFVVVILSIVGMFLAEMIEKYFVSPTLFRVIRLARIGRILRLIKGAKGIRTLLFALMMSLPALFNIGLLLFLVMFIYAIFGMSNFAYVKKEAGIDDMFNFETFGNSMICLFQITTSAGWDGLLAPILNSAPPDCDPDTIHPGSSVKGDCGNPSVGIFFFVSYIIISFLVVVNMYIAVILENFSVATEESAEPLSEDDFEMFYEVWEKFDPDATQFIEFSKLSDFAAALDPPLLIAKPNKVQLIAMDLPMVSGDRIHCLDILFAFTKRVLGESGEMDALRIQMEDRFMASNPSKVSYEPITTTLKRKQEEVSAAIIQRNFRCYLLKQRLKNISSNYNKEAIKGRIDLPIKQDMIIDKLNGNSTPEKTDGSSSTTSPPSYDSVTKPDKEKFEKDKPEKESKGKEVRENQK

Regarding `CC[C@H](C)[C@@H]1NC(=O)[C@@H]2CSSC[C@@H]3NC(=O)[C@H](C(C)C)NC(=O)[C@H](CC(C)C)NC(=O)[C@H](CC(N)=O)NC(=O)[C@@H]4CCCN4C(=O)[C@H](CCCNC(=N)N)NC(=O)[C@H](CSSC[C@H](NC(=O)[C@@H](N)CC(=O)O)C(=O)N[C@@H](CC(C)C)C(=O)NCC(=O)N[C@@H](Cc4ccccc4)C(=O)N[C@@H](CC(C)C)C(=O)N[C@@H](CCCNC(=N)N)C(=O)N[C@@H](CCCCN)C(=O)N2)NC(=O)[C@H](CSSC[C@@H](C(=O)N[C@@H](CCCCN)C(=O)N[C@@H](Cc2ccc(O)cc2)C(=O)N[C@H](C(=O)N[C@@H](Cc2ccccc2)C(N)=O)C(C)C)NC(=O)[C@H](Cc2c[nH]c4ccccc24)NC(=O)[C@H](CCCCN)NC(=O)[C@H](Cc2cnc[nH]2)NC(=O)[C@H]([C@@H](C)O)NC(=O)[C@H](CCCNC(=N)N)NC(=O)[C@H](CO)NC3=O)NC(=O)[C@H](CCCCN)NC(=O)[C@H](CC(=O)O)NC(=O)[C@H](CC(N)=O)NC(=O)[C@H](CC(=O)O)NC(=O)[C@@H]2CCCN2C1=O` [SEQ ID NO: 244] (H-DCLGFLRKCIPDNDKCCRPNLVCSRTHKWCKYVF-NH2; disulfide 2-17, 9-23, 16-30), the IC50 turned out to be 60 nM at hNav1.7 [1]; 6420 nM on hNav1.5; 40 nM at hNav1.3 [2]; 26 nM on hNav1.7 [3]; 18 nM against hNav1.3 [4].

Consider `CC[C@H](C)[C@@H]1NC(=O)[C@@H]2CSSC[C@@H]3NC(=O)[C@H](C(C)C)NC(=O)[C@H](CC(C)C)NC(=O)[C@H](CC(N)=O)NC(=O)[C@@H]4CCCN4C(=O)[C@H](CCCNC(=N)N)NC(=O)[C@H](CSSC[C@H](NC(=O)[C@@H](N)CC(=O)O)C(=O)N[C@@H](CC(C)C)C(=O)NCC(=O)N[C@@H](Cc4ccc(I)cc4)C(=O)N[C@@H](CCSC)C(=O)N[C@@H](CCCNC(=N)N)C(=O)N[C@@H](CCCCN)C(=O)N2)NC(=O)[C@H](CSSC[C@@H](C(=O)N[C@@H](CCCCN)C(=O)N[C@@H](Cc2ccc(O)cc2)C(=O)N[C@H](C(=O)N[C@@H](Cc2ccccc2)C(N)=O)C(C)C)NC(=O)[C@H](Cc2c[nH]c4ccccc24)NC(=O)[C@H](CCCCN)NC(=O)[C@H](Cc2c[nH]cn2)NC(=O)[C@H]([C@@H](C)O)NC(=O)[C@H](CCCNC(=N)N)NC(=O)[C@H](CO)NC3=O)NC(=O)[C@H](CCCCN)NC(=O)[C@H](CC(=O)O)NC(=O)[C@H](CC(N)=O)NC(=O)[C@H](CC(=O)O)NC(=O)[C@@H]2CCCN2C1=O` [SEQ ID NO: 247], for which the IC50 was found to be 160 nM at hNav1.7 [1]; 6160 nM at hNav1.5; 20 nM at hNav1.3 [2]; 247 nM against hNav1.7 [3]; 90 nM on hNav1.3 [4]. At hNav1.3 [4], the “potency against NaV1.3, in words” value is on record as “increased potency”.

With `CC[C@H](C)[C@@H]1NC(=O)[C@@H]2CSSC[C@@H]3NC(=O)[C@H](C(C)C)NC(=O)[C@H](CC(C)C)NC(=O)[C@H](CC(N)=O)NC(=O)[C@@H]4CCCN4C(=O)[C@H](CCCNC(=N)N)NC(=O)[C@H](CSSC[C@H](NC(=O)[C@@H](N)CC(=O)O)C(=O)N[C@@H](CC(C)C)C(=O)NCC(=O)N[C@@H](C)C(=O)N[C@@H](CCSC)C(=O)N[C@@H](CCCNC(=N)N)C(=O)N[C@@H](CCCCN)C(=O)N2)NC(=O)[C@H](CSSC[C@@H](C(=O)N[C@@H](CCCCN)C(=O)N[C@@H](Cc2ccc(O)cc2)C(=O)N[C@H](C(=O)N[C@@H](Cc2ccccc2)C(N)=O)C(C)C)NC(=O)[C@H](Cc2c[nH]c4ccccc24)NC(=O)[C@H](CCCCN)NC(=O)[C@H](Cc2cnc[nH]2)NC(=O)[C@H](CC(C)C)NC(=O)[C@H](CCCNC(=N)N)NC(=O)[C@H](CO)NC3=O)NC(=O)[C@H](CCCCN)NC(=O)[C@H](CC(=O)O)NC(=O)[C@H](CC(N)=O)NC(=O)[C@H](CC(=O)O)NC(=O)[C@@H]2CCCN2C1=O` [[Ala5;Leu26]GpTx-1(1-34)] (H-DCLGAMRKCIPDNDKCCRPNLVCSRLHKWCKYVF-NH2; disulfide 2-17, 9-23, 16-30), the IC50 was determined as 49 nM at hNav1.7 [3] and 470 nM against hNav1.3 [4].

As for `CC[C@H](C)[C@@H]1NC(=O)[C@@H]2CSSC[C@@H]3NC(=O)[C@H](C(C)C)NC(=O)[C@H](CC(C)C)NC(=O)[C@H](CC(N)=O)NC(=O)[C@@H]4CCCN4C(=O)[C@H](CCCNC(=N)N)NC(=O)[C@H](CSSC[C@H](NC(=O)[C@@H](N)CC(=O)O)C(=O)N[C@@H](CC(C)C)C(=O)NCC(=O)N[C@@H](C)C(=O)N[C@@H](Cc4ccccc4)C(=O)N[C@@H](CCCNC(=N)N)C(=O)N[C@@H](CCCCN)C(=O)N2)NC(=O)[C@H](CSSC[C@@H](C(=O)N[C@@H](CCCCN)C(=O)N[C@@H](Cc2ccc(O)cc2)C(=O)N[C@H](C(=O)N[C@@H](Cc2ccccc2)C(N)=O)C(C)C)NC(=O)[C@H](Cc2c[nH]c4ccccc24)NC(=O)[C@H](CCCNC(=N)N)NC(=O)[C@H](Cc2cnc[nH]2)NC(=O)[C@H](CC(C)C)NC(=O)[C@H](CCCNC(=N)N)NC(=O)[C@H](CO)NC3=O)NC(=O)[C@H](CCCCN)NC(=O)[C@H](CC(=O)O)NC(=O)[C@H](CC(N)=O)NC(=O)[C@H](CC(=O)O)NC(=O)[C@@H]2CCCN2C1=O` [[Ala5;Phe6;Leu26;Arg28]GpTx-1(1-34)] (H-DCLGAFRKCIPDNDKCCRPNLVCSRLHRWCKYVF-NH2; disulfide 2-17, 9-23, 16-30), the IC50 at hNav1.7 [3] amounted to 2 nM; against hNav1.3 [4], 8 nM.

In the case of `CC[C@H](C)[C@@H]1NC(=O)[C@@H]2CSSC[C@@H]3NC(=O)[C@H](C(C)C)NC(=O)[C@H](CC(C)C)NC(=O)[C@H](CC(N)=O)NC(=O)[C@@H]4CCCN4C(=O)[C@H](CCCNC(=N)N)NC(=O)[C@H](CSSC[C@H](NC(=O)[C@@H](N)CC(=O)O)C(=O)N[C@@H](CC(C)C)C(=O)NCC(=O)N[C@@H](C)C(=O)N[C@@H](Cc4c[nH]c5ccccc45)C(=O)N[C@@H](CCCNC(=N)N)C(=O)N[C@@H](CCCCN)C(=O)N2)NC(=O)[C@H](CSSC[C@@H](C(=O)N[C@@H](CCCCN)C(=O)N[C@@H](Cc2ccc(O)cc2)C(=O)N[C@H](C(=O)N[C@@H](Cc2ccccc2)C(N)=O)C(C)C)NC(=O)[C@H](Cc2c[nH]c4ccccc24)NC(=O)[C@H](CCCCN)NC(=O)[C@H](Cc2cnc[nH]2)NC(=O)[C@H]([C@@H](C)O)NC(=O)[C@H](CCCNC(=N)N)NC(=O)[C@H](CO)NC3=O)NC(=O)[C@H](CCCCN)NC(=O)[C@H](CC(=O)O)NC(=O)[C@H](CC(N)=O)NC(=O)[C@H](CC(=O)O)NC(=O)[C@@H]2CCCN2C1=O` [[Ala5;Trp6]GpTx-1(1-34)] (H-DCLGAWRKCIPDNDKCCRPNLVCSRTHKWCKYVF-NH2; disulfide 2-17, 9-23, 16-30), the IC50 at hNav1.7 [3] was 57 nM; against hNav1.3 [4] it was 81 nM.

`CC[C@H](C)[C@@H]1NC(=O)[C@@H]2CSSC[C@@H]3NC(=O)[C@H](C(C)C)NC(=O)[C@H](CC(C)C)NC(=O)[C@H](CC(N)=O)NC(=O)[C@@H]4CCCN4C(=O)[C@H](CCC(=O)O)NC(=O)[C@H](CSSC[C@H](NC(=O)[C@@H](N)CC(=O)O)C(=O)N[C@@H](CC(C)C)C(=O)NCC(=O)N[C@@H](Cc4ccccc4)C(=O)N[C@@H](CCSC)C(=O)N[C@@H](CCCNC(=N)N)C(=O)N[C@@H](CCCCN)C(=O)N2)NC(=O)[C@H](CSSC[C@@H](C(=O)N[C@@H](CCCCN)C(=O)N[C@@H](Cc2ccc(O)cc2)C(=O)N[C@H](C(=O)N[C@@H](Cc2ccccc2)C(N)=O)C(C)C)NC(=O)[C@H](Cc2c[nH]c4ccccc24)NC(=O)[C@H](CCCCN)NC(=O)[C@H](Cc2cnc[nH]2)NC(=O)[C@H]([C@@H](C)O)NC(=O)[C@H](CCCNC(=N)N)NC(=O)[C@H](CO)NC3=O)NC(=O)[C@H](CCCCN)NC(=O)[C@H](CC(=O)O)NC(=O)[C@H](CC(N)=O)NC(=O)[C@H](CC(=O)O)NC(=O)[C@@H]2CCCN2C1=O` [[Glu18]GpTx-1(1-34)] (H-DCLGFMRKCIPDNDKCCEPNLVCSRTHKWCKYVF-NH2; disulfide 2-17, 9-23, 16-30): the figures for the IC50 on hNav1.7 [3] and on hNav1.3 [4] were 18 nM and 98 nM, respectively.

As to `CC[C@H](C)[C@@H]1NC(=O)[C@@H]2CSSC[C@@H]3NC(=O)[C@H](C(C)C)NC(=O)[C@H](CC(C)C)NC(=O)[C@H](CC(N)=O)NC(=O)[C@@H]4CCCN4C(=O)[C@H](CCCNC(=N)N)NC(=O)[C@H](CSSC[C@H](NC(=O)[C@@H](N)CC(=O)O)C(=O)N[C@@H](CC(C)C)C(=O)NCC(=O)N[C@@H](Cc4ccccc4)C(=O)N[C@@H](CCSC)C(=O)N[C@@H](CCCNC(=N)N)C(=O)N[C@@H](CCCCN)C(=O)N2)NC(=O)[C@H](CSSC[C@@H](C(=O)N[C@@H](CCCCN)C(=O)N[C@@H](Cc2ccc(O)cc2)C(=O)N[C@H](C(=O)N[C@@H](Cc2ccccc2)C(N)=O)C(C)C)NC(=O)[C@H](Cc2c[nH]c4ccccc24)NC(=O)[C@H](CCCCN)NC(=O)[C@H](Cc2cnc[nH]2)NC(=O)[C@H](CCC(=O)O)NC(=O)[C@H](CCCNC(=N)N)NC(=O)[C@H](CO)NC3=O)NC(=O)[C@H](CCCCN)NC(=O)[C@H](CC(=O)O)NC(=O)[C@H](CC(N)=O)NC(=O)[C@H](CC(=O)O)NC(=O)[C@@H]2CCCN2C1=O` [[Glu26]GpTx-1(1-34)] (H-DCLGFMRKCIPDNDKCCRPNLVCSREHKWCKYVF-NH2; disulfide 2-17, 9-23, 16-30), the IC50 was 52 nM against hNav1.7 [3] and 216 nM against hNav1.3 [4].
